Data reported in publication PMC3969711 (Chembiochem : a European journal of chemical biology, 2014).
Where “and” joins values, the source holds several entries; their conditions need not be identical. Equal entries are not always repeated. Where two headings read alike, the source gives them in different places.

Tests used:
LasR [1] = target: T1, LasR (Pseudomonas aeruginosa, UniProt P25084); conditions: in P. aeruginosa, related reporter constructs; cited from earlier work
wild-type P. aeruginosa = conditions: cited from earlier work
LasR [2] = target: T1, LasR; assay type: cell-based, P. aeruginosa; conditions: for Fold change of IC50: IC50 in PAO-JP2 vs PAO-JG21
LasR [3] = target: T1, LasR; conditions: in E. coli, related reporter constructs; cited from earlier work
LasR [4] = target: T1, LasR; experiment: LasR competitive antagonism reporter assay in pump-mutant PAO-JG21; assay type: cell-based, P. aeruginosa; conditions: PAO-JG21, 25 µg/mL PAβN

T1 sequence (P25084 whole entry): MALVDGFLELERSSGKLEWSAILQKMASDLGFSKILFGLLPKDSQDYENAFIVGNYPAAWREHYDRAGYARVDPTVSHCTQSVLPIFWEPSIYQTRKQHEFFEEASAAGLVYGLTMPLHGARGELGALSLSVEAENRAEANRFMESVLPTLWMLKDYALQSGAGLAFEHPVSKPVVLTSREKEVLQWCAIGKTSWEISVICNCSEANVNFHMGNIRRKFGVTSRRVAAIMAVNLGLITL

| SMILES | inhibition of LasR activity (LasR [1]) [%] | inhibition of pyocyanin production (wild-type P. aeruginosa) | Fold change of IC50 (LasR [2]) | inhibition of LasR activity (LasR [3]) [%] | effect of pump inhibitor PAβN on LasR inhibitory potency (LasR [2]; PAO-JP2, 25 µg/mL PAβN) | maximum inhibition of LasR activity (LasR [2]; PAO-JP2 harboring plasI-LVAgfp, dose-response (Figure S-14)) | effect of pump inhibitor PAβN on LasR inhibitory potency (LasR [4]) |
| --- | --- | --- | --- | --- | --- | --- | --- |
| CCCCCCCCCC(=O)CC(=O)Nc1ccccc1 [3-oxo-C12-aniline] | 30 | strongly inhibiting pyocyanin production | 6.5 | 55 | – | – | – |
| Cc1cc2nc(N)[nH]c2cc1C [DMABI, 5,6-dimethyl-2-aminobenzimidazole] | – | – | 1.6 | – | no effect | ~ 40% and 40% | no effect |
